In patent US10168342B2, “Lipid probes and uses thereof” (THE SCRIPPS RESEARCH INSTITUTE, priority 2015, dated 2019):

Assays:
Format in all cases: cell-based
[1] = molecular target: T1, lipid-binding proteins in Neuro2a cells (Mus musculus, UniProt Q8VCD6); experiment: SILAC MS mapping of lipid probe targets (probe-versus-No UV, probe-versus-probe) in Neuro2a cells; settings: A-DA probe, No UV control, target protein Reep2 (Q8VCD6)
T1 construct: endogenous in cells; host or cells: Neuro2a

[2] = molecular target: T2, lipid-binding proteins in A549 cells (Homo sapiens, UniProt Q9H6K4); experiment: SILAC MS mapping of UV-dependent lipid probe targets in A549 cells; settings: A-DA probe vs NoUV
T2 construct: endogenous in cells; host or cells: A549 (PMA-stimulated for the PTGS2 experiments)

[3] = molecular target: T3, lipid-binding proteins in A549 cells (Homo sapiens, UniProt P07602); experiment: as above; settings: A-DA probe vs NoUV
T3 construct: endogenous in cells; host or cells: A549 (PMA-stimulated for the PTGS2 experiments)
T3 sequence (P07602 60-524): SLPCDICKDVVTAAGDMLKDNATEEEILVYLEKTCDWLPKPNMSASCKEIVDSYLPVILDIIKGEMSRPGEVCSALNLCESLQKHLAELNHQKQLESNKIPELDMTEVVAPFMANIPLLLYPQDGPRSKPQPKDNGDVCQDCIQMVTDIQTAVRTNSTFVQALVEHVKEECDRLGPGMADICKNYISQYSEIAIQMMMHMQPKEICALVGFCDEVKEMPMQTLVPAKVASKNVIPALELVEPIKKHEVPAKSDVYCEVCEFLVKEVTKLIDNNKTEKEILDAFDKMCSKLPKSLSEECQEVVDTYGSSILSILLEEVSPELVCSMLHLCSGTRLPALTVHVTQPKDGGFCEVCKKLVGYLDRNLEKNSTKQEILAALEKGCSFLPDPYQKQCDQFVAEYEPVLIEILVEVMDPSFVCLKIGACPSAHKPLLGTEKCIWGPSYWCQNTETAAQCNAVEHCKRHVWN

[4] = molecular target: T4, lipid-binding proteins in A549 cells (Homo sapiens, UniProt O15173); experiment: as above; settings: A-DA probe vs NoUV
T4 construct: endogenous in cells; host or cells: A549 (PMA-stimulated for the PTGS2 experiments)

[5] = molecular target: T5, lipid-binding proteins in A549 cells (Homo sapiens, UniProt Q6P1A2); experiment: as above; settings: A-DA probe vs NoUV
T5 construct: endogenous in cells; host or cells: A549 (PMA-stimulated for the PTGS2 experiments)

[6] = molecular target: T6, lipid-binding proteins in A549 cells (Homo sapiens, UniProt Q5HYK3); experiment: as above; settings: A-DA probe vs NoUV
T6 construct: endogenous in cells; host or cells: A549 (PMA-stimulated for the PTGS2 experiments)
T6 sequence (Q5HYK3 43-327): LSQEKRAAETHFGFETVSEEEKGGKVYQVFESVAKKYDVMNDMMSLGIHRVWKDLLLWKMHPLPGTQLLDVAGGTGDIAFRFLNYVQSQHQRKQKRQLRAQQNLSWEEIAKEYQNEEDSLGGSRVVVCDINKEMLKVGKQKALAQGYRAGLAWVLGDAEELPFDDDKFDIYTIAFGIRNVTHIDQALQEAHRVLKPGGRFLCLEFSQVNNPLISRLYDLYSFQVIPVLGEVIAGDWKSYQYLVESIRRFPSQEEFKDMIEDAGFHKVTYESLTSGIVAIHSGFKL

[7] = molecular target: T7, lipid-binding proteins in A549 cells (Homo sapiens, UniProt Q15738); experiment: as above; settings: A-DA probe vs NoUV
T7 construct: endogenous in cells; host or cells: A549 (PMA-stimulated for the PTGS2 experiments)

[8] = molecular target: T8, lipid-binding proteins in A549 cells (Homo sapiens, UniProt Q8IZV5); experiment: as above; settings: A-DA probe vs NoUV
T8 construct: endogenous in cells; host or cells: A549 (PMA-stimulated for the PTGS2 experiments)

[9] = molecular target: T9, lipid-binding proteins in A549 cells (Homo sapiens, UniProt P30519); experiment: as above; settings: A-DA probe vs NoUV
T9 construct: endogenous in cells; host or cells: A549 (PMA-stimulated for the PTGS2 experiments)

[10] = molecular target: T10, lipid-binding proteins in A549 cells (Homo sapiens, UniProt O75911); experiment: as above; settings: A-DA probe vs NoUV
T10 construct: endogenous in cells; host or cells: A549 (PMA-stimulated for the PTGS2 experiments)

[11] = molecular target: T11, lipid-binding proteins in A549 cells (Homo sapiens, UniProt P45880); experiment: as above; settings: A-DA probe vs NoUV
T11 construct: endogenous in cells; host or cells: A549 (PMA-stimulated for the PTGS2 experiments)
T11 sequence (P45880 whole entry): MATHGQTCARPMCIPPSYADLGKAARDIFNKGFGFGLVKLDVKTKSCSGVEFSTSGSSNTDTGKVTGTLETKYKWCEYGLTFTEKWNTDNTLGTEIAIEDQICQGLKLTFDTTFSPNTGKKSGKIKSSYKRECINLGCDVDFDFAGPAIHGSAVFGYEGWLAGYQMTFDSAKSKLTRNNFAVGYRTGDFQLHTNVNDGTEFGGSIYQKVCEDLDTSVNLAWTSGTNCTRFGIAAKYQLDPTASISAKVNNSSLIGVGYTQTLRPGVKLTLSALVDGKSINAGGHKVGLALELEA

[12] = molecular target: T12, lipid-binding proteins in A549 cells (Homo sapiens, UniProt Q99536); experiment: as above; settings: A-DA probe vs NoUV
T12 construct: endogenous in cells; host or cells: A549 (PMA-stimulated for the PTGS2 experiments)

[13] = molecular target: T13, lipid-binding proteins in A549 cells (Homo sapiens, UniProt Q9HAW7); experiment: as above; settings: A-DA probe vs NoUV
T13 construct: endogenous in cells; host or cells: A549 (PMA-stimulated for the PTGS2 experiments)
T13 sequence (Q9HAW7 26-530): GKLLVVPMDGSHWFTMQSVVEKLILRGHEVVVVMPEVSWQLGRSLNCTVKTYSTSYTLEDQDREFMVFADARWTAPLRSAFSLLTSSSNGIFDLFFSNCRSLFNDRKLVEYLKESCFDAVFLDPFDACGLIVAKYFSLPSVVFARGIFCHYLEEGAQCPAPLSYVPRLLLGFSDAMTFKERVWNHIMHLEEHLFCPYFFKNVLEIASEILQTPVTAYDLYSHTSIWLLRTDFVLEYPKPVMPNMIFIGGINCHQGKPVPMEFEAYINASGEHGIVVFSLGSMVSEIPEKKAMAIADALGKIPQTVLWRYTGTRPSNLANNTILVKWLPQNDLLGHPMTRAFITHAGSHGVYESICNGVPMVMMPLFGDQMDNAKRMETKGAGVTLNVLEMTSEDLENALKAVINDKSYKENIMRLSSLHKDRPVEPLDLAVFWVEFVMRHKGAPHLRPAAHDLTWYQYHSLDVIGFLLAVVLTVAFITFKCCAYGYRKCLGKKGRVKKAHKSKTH

[14] = molecular target: T14, lipid-binding proteins in A549 cells (Homo sapiens, UniProt Q14534); experiment: as above; settings: A-DA probe vs NoUV
T14 construct: endogenous in cells; host or cells: A549 (PMA-stimulated for the PTGS2 experiments)

[15] = molecular target: T15, lipid-binding proteins in A549 cells (Homo sapiens, UniProt Q86XL3); experiment: as above; settings: A-DA probe vs NoUV
T15 construct: endogenous in cells; host or cells: A549 (PMA-stimulated for the PTGS2 experiments)

[16] = molecular target: T16, lipid-binding proteins in A549 cells (Homo sapiens, UniProt P35354); experiment: as above
T16 construct: endogenous in cells; host or cells: A549 (PMA-stimulated for the PTGS2 experiments)
T16 sequence (P35354 18-604): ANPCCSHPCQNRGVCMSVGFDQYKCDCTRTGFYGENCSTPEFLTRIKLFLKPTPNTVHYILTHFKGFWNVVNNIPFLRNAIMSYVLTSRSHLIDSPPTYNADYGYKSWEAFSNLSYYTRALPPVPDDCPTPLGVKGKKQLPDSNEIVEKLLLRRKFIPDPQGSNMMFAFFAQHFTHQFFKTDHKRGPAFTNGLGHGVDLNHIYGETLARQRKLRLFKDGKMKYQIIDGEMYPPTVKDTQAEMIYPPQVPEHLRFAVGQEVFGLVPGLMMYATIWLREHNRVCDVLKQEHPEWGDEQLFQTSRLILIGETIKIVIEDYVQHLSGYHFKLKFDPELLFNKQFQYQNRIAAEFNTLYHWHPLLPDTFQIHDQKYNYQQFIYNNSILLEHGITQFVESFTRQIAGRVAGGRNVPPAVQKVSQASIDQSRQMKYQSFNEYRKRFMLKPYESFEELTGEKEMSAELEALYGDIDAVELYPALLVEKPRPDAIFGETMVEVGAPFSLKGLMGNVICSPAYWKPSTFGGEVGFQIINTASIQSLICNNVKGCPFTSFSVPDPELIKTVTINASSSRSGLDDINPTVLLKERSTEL

[17] = molecular target: T17, lipid-binding proteins in A549 cells (Homo sapiens, UniProt Q7Z2K6); experiment: as above; settings: A-DA probe vs NoUV
T17 construct: endogenous in cells; host or cells: A549 (PMA-stimulated for the PTGS2 experiments)

[18] = molecular target: T18, lipid-binding proteins in A549 cells (Homo sapiens, UniProt P50402); experiment: as above; settings: A-DA probe vs NoUV
T18 construct: endogenous in cells; host or cells: A549 (PMA-stimulated for the PTGS2 experiments)
T18 sequence (P50402 whole entry): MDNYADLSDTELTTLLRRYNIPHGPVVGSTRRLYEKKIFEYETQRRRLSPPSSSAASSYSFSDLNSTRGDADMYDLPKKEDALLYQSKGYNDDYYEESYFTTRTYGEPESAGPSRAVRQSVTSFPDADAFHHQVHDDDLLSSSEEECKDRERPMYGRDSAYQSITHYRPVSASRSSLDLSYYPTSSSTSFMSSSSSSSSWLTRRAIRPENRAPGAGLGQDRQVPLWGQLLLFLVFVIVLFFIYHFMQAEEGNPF

[19] = molecular target: T19, lipid-binding proteins in A549 cells (Homo sapiens, UniProt Q8N5I4); experiment: as above; settings: A-DA probe vs NoUV
T19 construct: endogenous in cells; host or cells: A549 (PMA-stimulated for the PTGS2 experiments)
T19 sequence (Q8N5I4 whole entry): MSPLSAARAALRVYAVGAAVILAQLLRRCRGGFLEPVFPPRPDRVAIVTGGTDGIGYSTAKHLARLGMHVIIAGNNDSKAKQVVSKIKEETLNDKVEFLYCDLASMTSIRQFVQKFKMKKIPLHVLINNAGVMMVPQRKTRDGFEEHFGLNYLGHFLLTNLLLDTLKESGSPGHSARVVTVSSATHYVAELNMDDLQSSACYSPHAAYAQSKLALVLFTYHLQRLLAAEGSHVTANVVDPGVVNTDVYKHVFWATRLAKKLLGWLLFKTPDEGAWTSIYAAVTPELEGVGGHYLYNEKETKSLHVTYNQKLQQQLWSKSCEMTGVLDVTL

[20] = molecular target: T20, lipid-binding proteins in A549 cells (Homo sapiens, UniProt Q9Y639); experiment: as above; settings: A-DA probe vs NoUV
T20 construct: endogenous in cells; host or cells: A549 (PMA-stimulated for the PTGS2 experiments)

[21] = molecular target: T21, lipid-binding proteins in A549 cells (Homo sapiens, UniProt Q53GQ0); experiment: as above; settings: A-DA probe vs NoUV
T21 construct: endogenous in cells; host or cells: A549 (PMA-stimulated for the PTGS2 experiments)

[22] = molecular target: T22, lipid-binding proteins in A549 cells (Homo sapiens, UniProt Q8NF37); experiment: as above; settings: A-DA probe vs NoUV
T22 construct: endogenous in cells; host or cells: A549 (PMA-stimulated for the PTGS2 experiments)

[23] = molecular target: T23, lipid-binding proteins in A549 cells (Homo sapiens, UniProt Q9UH99); experiment: as above; settings: protein SUN2 (Q9UH99), A-DA probe
T23 construct: endogenous in cells; host or cells: A549 (PMA-stimulated for the PTGS2 experiments)

[24] = molecular target: T24, lipid-binding proteins in A549 cells (Homo sapiens, UniProt O95470); experiment: as above; settings: A-DA probe vs NoUV
T24 construct: endogenous in cells; host or cells: A549 (PMA-stimulated for the PTGS2 experiments)
T24 sequence (O95470 whole entry): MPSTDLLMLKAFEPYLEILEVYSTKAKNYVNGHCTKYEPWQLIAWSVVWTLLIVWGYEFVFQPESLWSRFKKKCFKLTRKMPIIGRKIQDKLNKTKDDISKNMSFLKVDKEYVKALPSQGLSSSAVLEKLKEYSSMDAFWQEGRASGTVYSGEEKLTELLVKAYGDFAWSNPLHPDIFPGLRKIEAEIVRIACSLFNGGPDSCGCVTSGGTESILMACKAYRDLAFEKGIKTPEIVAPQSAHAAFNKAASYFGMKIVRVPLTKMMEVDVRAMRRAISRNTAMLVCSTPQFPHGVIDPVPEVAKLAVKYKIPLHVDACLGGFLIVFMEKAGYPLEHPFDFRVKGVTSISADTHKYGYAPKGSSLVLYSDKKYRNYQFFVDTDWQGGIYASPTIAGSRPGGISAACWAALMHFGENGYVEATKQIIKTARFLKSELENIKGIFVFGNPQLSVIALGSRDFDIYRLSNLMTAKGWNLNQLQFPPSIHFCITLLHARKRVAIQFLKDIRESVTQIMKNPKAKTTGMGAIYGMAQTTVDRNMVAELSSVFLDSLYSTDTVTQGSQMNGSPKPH

[25] = molecular target: T25, lipid-binding proteins in A549 cells (Homo sapiens, UniProt Q96KC8); experiment: as above; settings: A-DA probe vs NoUV
T25 construct: endogenous in cells; host or cells: A549 (PMA-stimulated for the PTGS2 experiments)
T25 sequence (Q96KC8 48-554): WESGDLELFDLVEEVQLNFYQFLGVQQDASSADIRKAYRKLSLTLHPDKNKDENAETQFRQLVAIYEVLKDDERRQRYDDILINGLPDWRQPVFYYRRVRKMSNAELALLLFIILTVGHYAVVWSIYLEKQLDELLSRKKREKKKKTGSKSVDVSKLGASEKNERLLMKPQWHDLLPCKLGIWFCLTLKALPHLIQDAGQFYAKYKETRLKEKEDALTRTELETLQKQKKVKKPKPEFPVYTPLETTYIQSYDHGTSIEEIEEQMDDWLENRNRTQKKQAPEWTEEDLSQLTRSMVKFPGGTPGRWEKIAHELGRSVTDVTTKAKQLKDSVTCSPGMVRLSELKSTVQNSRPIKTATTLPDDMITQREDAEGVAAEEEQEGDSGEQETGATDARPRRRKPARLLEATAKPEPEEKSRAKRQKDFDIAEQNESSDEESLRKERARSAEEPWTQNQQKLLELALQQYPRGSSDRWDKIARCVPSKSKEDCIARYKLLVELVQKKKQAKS

[26] = molecular target: T26, lipid-binding proteins in A549 cells (Homo sapiens, UniProt Q96G23); experiment: as above; settings: A-DA probe vs NoUV
T26 construct: endogenous in cells; host or cells: A549 (PMA-stimulated for the PTGS2 experiments)
T26 sequence (Q96G23 whole entry): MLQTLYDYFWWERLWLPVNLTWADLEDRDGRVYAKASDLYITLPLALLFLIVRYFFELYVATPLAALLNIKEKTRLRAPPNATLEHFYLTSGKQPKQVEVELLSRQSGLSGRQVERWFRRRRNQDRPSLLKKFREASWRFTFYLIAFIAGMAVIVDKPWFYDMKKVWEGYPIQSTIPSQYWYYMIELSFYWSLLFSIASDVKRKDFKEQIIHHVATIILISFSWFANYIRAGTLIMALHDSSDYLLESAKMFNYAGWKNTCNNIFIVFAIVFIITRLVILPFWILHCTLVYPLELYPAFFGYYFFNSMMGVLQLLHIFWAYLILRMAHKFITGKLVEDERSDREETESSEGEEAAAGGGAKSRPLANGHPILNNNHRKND

[27] = molecular target: T27, lipid-binding proteins in A549 cells (Homo sapiens, UniProt P07093); experiment: as above; settings: protein SERPINE2 (P07093), A-DA probe
T27 construct: endogenous in cells; host or cells: A549 (PMA-stimulated for the PTGS2 experiments)

[28] = molecular target: T28, lipid-binding proteins in A549 cells (Homo sapiens, UniProt P21796); experiment: as above; settings: A-DA probe vs NoUV
T28 construct: endogenous in cells; host or cells: A549 (PMA-stimulated for the PTGS2 experiments)
T28 sequence (P21796 whole entry): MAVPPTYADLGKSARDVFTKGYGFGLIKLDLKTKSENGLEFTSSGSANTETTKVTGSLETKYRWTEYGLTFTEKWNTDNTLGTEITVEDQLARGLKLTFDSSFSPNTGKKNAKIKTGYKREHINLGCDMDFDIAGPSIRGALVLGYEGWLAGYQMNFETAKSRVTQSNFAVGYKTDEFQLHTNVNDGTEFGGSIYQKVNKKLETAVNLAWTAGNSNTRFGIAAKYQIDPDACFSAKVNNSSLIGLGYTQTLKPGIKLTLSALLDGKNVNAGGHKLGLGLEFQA

[29] = molecular target: T29, lipid-binding proteins in A549 cells (Homo sapiens, UniProt Q9NX47); experiment: as above; settings: A-DA probe vs NoUV
T29 construct: endogenous in cells; host or cells: A549 (PMA-stimulated for the PTGS2 experiments)

[30] = molecular target: T30, lipid-binding proteins in A549 cells (Homo sapiens, UniProt Q9BTX1); experiment: as above; settings: A-DA probe vs NoUV
T30 construct: endogenous in cells; host or cells: A549 (PMA-stimulated for the PTGS2 experiments)

[31] = molecular target: T31, lipid-binding proteins in A549 cells (Homo sapiens, UniProt P67812); experiment: as above; settings: A-DA probe vs NoUV
T31 construct: endogenous in cells; host or cells: A549 (PMA-stimulated for the PTGS2 experiments)
T31 sequence (P67812 whole entry): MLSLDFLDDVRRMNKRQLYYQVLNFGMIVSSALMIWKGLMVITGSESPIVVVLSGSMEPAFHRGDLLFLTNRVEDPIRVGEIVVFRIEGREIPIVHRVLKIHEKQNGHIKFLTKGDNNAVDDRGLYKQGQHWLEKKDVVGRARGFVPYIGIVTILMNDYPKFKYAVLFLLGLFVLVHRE

[32] = molecular target: T32, lipid-binding proteins in A549 cells (Homo sapiens, UniProt Q9NS69); experiment: as above; settings: A-DA probe vs NoUV
T32 construct: endogenous in cells; host or cells: A549 (PMA-stimulated for the PTGS2 experiments)

T1 sequence (Q8VCD6 whole entry): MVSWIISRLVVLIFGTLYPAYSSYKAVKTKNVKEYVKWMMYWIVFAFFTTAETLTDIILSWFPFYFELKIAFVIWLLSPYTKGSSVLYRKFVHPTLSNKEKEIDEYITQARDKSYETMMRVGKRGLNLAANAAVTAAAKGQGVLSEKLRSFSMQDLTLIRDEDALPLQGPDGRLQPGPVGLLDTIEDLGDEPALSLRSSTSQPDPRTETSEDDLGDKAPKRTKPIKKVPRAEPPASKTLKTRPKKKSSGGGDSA

C#CCCC/C=C\C/C=C\C/C=C\C/C=C\CCCC(=O)NCCC1(C)N=N1 [A-DA, (5Z,8Z,11Z,14Z)-N-(2-(3-methyl-3H-diazirin-3-yl)ethyl)icosa-5,8,11,14-tetraen-19-ynamide]
7.8: SILAC ratio, VAT1 (Q99536) [12]
13.3: SILAC ratio, CERS2 (Q924Z4) [26]
16.9: SILAC ratio, NSDHL (Q15738) [7]
10.3: SILAC ratio, EMD (O08579) [18]
15.6: SILAC ratio, DHRS3 (O75911) [10]
3.2: SILAC ratio of PTGS2, probe versus No UV ([16]; A-DA 5 μM) | SILAC ratio, PTGS2 (P35354) ([16]; A-DA probe vs NoUV)
4.1: SILAC ratio, MARCH5 (Q3KNM2) [29]
19.7: SILAC ratio, VDAC2 (P45880) [11] | SILAC ratio, SGPL1 (O95470) [24]
4.5: SILAC ratio, No UV (A-DA probe versus No UV) [27]
20.0: SILAC ratio, No UV (A-DA probe versus No UV), Reep2 (Q8VCD6) [1] | SILAC ratio, OPA3 (Q505D7) [2] | SILAC ratio, PSAP (P07602) [3] | SILAC ratio, PGRMC2 (Q80UU9) [4] | SILAC ratio, LPCAT3 (Q6P1A2) [5] | SILAC ratio, COQ5 (Q5HYK3) [6] | SILAC ratio, RDH10 (Q8IZV5) [8] | SILAC ratio, HMOX2 (P30519) [9] | SILAC ratio, UGT1A7 (Q9HAW7) [13] | SILAC ratio, SQLE (Q14534) [14] | SILAC ratio, ANKLE2 (Q86XL3) [15] | SILAC ratio, ERMP1 (Q7Z2K6) [17] | SILAC ratio, DHRSX (Q8N5I4) [19] | SILAC ratio, NPTN (Q9Y639) [20] | SILAC ratio, HSD17B12 (Q53GQ0) [21] | SILAC ratio, LPCAT1 (Q8NF37) [22] | SILAC ratio, No UV (A-DA probe versus No UV) [23] | SILAC ratio, DNAJC1 (Q96KC8) [25] | SILAC ratio, VDAC1 (P21796) [28] | SILAC ratio, TMEM48 (Q8VCB1) [30] | SILAC ratio, SEC11A (P67812) [31]
18.4: SILAC ratio, TOMM22 (Q9CPQ3) [32]
